ChEMBL document CHEMBL4390694, “Benzofuran-isatin hybrids tethered via different length alkyl linkers and their in vitro anti-mycobacterial activities” (Bioorg Med Chem, 2019)
In brackets after ≈: the same amount, converted by molar mass.

What follows are compounds tested on Mycobacterium tuberculosis (assay: Antimycobacterial activity against multidrug-resistant Mycobacterium tuberculosis assessed as complete inhibition of bacterial growth incubated for 7 days by rapid direct susceptibility test). Details: 168 h.
Assay type: functional
CCOC(=O)c1c(-c2ccc(OC)cc2)oc2ccc(OCCCCN3C(=O)C(=O)c4cc(OC)ccc43)cc12 was tested, and the MIC was 4 µg/mL (≈ 7.36 µM).
Compound CCOC(=O)c1c(-c2ccccc2)oc2ccc(OCCCN3C(=O)C(=O)c4cc(OC)ccc43)cc12 has an MIC of 0.25 µg/mL (≈ 0.5 µM).
Compound CCOC(=O)c1c(-c2ccc(F)cc2)oc2ccc(OCCCCCN3C(=O)C(=O)c4cc(OC)ccc43)cc12 has an MIC of 1 µg/mL (≈ 1.83 µM).
Compound CCOC(=O)c1c(-c2ccc(F)cc2)oc2ccc(OCCCN3C(=O)C(=O)c4cc(OC)ccc43)cc12 has an MIC of 2 µg/mL (≈ 3.86 µM).
Compound CCOC(=O)c1c(-c2ccc(OC)cc2)oc2ccc(OCCCCCN3C(=O)C(=O)c4cc(F)ccc43)cc12 has an MIC of 0.25 µg/mL (≈ 0.458 µM).
Work on CCOC(=O)c1c(-c2ccc(F)cc2)oc2ccc(OCCCCCCN3C(=O)C(=O)c4cc(F)ccc43)cc12 yielded an MIC of 0.25 µg/mL (≈ 0.457 µM).
With CCOC(=O)c1c(-c2ccc(OC)cc2)oc2ccc(OCCCN3C(=O)C(=O)c4ccccc43)cc12 the MIC was 1 µg/mL (≈ 2 µM).
Work on CCOC(=O)c1c(-c2ccc(OC)cc2)oc2ccc(OCCCCCCN3C(=O)C(=O)c4ccccc43)cc12 yielded an MIC of 0.125 µg/mL (≈ 0.231 µM).
Compound NNC(=O)c1ccncc1 [ISONIAZID] has an MIC of over 128 µg/mL.
CNC(=O)c1c(-c2ccc(O)cc2)oc2ccc(O)c(CN3CCCCC3)c12 gave an MIC of under 0.06 µg/mL.
Work on CCOC(=O)c1c(-c2ccc(OC)cc2)oc2ccc(OCCCN3C(=O)C(=O)c4cc(F)ccc43)cc12 yielded an MIC of 0.25 µg/mL (≈ 0.483 µM).
In the case of CCOC(=O)c1c(-c2ccc(OC)cc2)oc2ccc(OCCCCCCN3C(=O)C(=O)c4cc(F)ccc43)cc12, the MIC is reported as 0.125 µg/mL (≈ 0.223 µM).
Work on CCOC(=O)c1c(-c2ccc(F)cc2)oc2ccc(OCCCN3C(=O)C(=O)c4cc(F)ccc43)cc12 yielded an MIC of 1 µg/mL (≈ 1.98 µM).
With CO[C@H]1/C=C/O[C@@]2(C)Oc3c(C)c(O)c4c(O)c(c(/C=N/N5CCN(C)CC5)c(O)c4c3C2=O)NC(=O)/C(C)=C\C=C\[C@H](C)[C@H](O)[C@@H](C)[C@@H](O)[C@@H](C)[C@H](OC(C)=O)[C@@H]1C [RIFAMPIN] the MIC was 64 µg/mL (≈ 77.8 µM).
CCOC(=O)c1c(-c2ccc(F)cc2)oc2ccc(OCCCN3C(=O)C(=O)c4ccccc43)cc12 was tested, and the MIC was 1 µg/mL (≈ 2.05 µM).
CCOC(=O)c1c(-c2ccc(OC)cc2)oc2ccc(OCCCCN3C(=O)C(=O)c4ccccc43)cc12 gave an MIC of 1 µg/mL (≈ 1.95 µM).
